Columns and labels:
Experiment in all cases: KINOMEscan
Assay type in all cases: binding
[1] = molecular target: CAMK2G (Homo sapiens (Human), UniProt Q13555); conditions: read-out: percent control
From the text: (§1) Example 2. In Vitro Kinase Selectivity Profiling of the Compounds of the Present Disclosure

[2] = molecular target: EGFR(L747-E749del, A750P) (Homo sapiens (Human), UniProt P00533, A750P/DEL747-749); conditions: read-out: percent control
From the text: as §1

[3] = molecular target: PFTAIRE2 (Homo sapiens (Human), UniProt Q96Q40); conditions: read-out: percent control
From the text: as §1

[4] = molecular target: ALK(C1156Y) (Homo sapiens (Human), UniProt Q9UM73, C1156Y); conditions: read-out: percent control
From the text: as §1

[5] = molecular target: DMPK2 (Homo sapiens (Human), UniProt Q6DT37); conditions: read-out: percent control
From the text: as §1

[6] = molecular target: CAMKK2 (Homo sapiens (Human), UniProt Q96RR4); conditions: read-out: percent control
From the text: as §1

[7] = molecular target: RET(V804L) (Homo sapiens (Human), UniProt P07949, V804L); conditions: read-out: percent control
Sequence of RET(V804L) (P07949 29-1114 V804L): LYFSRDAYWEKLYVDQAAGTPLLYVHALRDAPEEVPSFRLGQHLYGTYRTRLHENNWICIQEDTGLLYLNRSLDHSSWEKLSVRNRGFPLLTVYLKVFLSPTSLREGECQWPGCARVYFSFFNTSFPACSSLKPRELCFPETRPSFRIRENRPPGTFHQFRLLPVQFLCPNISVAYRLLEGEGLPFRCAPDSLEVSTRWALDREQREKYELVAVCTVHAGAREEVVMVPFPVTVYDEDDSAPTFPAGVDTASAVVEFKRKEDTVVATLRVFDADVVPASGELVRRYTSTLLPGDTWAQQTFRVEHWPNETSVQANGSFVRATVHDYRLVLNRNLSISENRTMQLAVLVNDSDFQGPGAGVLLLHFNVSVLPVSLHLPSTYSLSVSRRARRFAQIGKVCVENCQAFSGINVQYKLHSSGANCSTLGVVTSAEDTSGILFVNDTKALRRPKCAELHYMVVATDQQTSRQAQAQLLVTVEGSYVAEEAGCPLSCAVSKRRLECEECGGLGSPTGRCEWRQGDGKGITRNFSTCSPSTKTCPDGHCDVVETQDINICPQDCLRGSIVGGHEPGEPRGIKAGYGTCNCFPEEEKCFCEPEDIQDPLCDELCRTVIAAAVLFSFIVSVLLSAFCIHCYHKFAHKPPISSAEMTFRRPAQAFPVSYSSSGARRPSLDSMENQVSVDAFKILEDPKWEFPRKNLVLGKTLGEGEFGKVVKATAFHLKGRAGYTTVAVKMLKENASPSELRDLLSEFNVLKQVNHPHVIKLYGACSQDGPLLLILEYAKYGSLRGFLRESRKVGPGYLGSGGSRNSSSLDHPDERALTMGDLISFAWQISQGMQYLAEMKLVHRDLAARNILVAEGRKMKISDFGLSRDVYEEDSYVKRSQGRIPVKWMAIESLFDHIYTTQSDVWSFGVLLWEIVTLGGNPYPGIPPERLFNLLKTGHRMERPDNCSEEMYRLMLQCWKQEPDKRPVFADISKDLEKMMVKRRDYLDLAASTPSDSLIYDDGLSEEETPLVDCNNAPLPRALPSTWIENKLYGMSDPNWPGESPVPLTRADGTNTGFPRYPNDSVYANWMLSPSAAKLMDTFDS
From the text: as §1

[8] = molecular target: EPHB2 (Homo sapiens (Human), UniProt P29323); conditions: read-out: percent control
From the text: as §1

[9] = molecular target: PIP5K2B (Homo sapiens (Human), UniProt P78356); conditions: read-out: percent control
From the text: as §1

[10] = molecular target: EPHA8 (Homo sapiens (Human), UniProt P29322); conditions: read-out: percent control
From the text: as §1

[11] = molecular target: MRCKB (Homo sapiens (Human), UniProt Q9Y5S2); conditions: read-out: percent control
From the text: as §1

[12] = molecular target: TBK1 (Homo sapiens (Human), UniProt Q9UHD2); conditions: read-out: percent control
From the text: as §1

[13] = molecular target: ABL1(F317L)-nonphosphorylated (Homo sapiens (Human), UniProt P00519, F317L); conditions: read-out: percent control
From the text: as §1

[14] = molecular target: FLT1 (Homo sapiens (Human), UniProt P17948); conditions: read-out: percent control
From the text: as §1

[15] = molecular target: MAP3K3 (Homo sapiens (Human), UniProt Q99759); conditions: read-out: percent control
From the text: as §1

[16] = molecular target: GRK3 (Homo sapiens (Human), UniProt P35626); conditions: read-out: percent control
Sequence of GRK3 (P35626 whole entry): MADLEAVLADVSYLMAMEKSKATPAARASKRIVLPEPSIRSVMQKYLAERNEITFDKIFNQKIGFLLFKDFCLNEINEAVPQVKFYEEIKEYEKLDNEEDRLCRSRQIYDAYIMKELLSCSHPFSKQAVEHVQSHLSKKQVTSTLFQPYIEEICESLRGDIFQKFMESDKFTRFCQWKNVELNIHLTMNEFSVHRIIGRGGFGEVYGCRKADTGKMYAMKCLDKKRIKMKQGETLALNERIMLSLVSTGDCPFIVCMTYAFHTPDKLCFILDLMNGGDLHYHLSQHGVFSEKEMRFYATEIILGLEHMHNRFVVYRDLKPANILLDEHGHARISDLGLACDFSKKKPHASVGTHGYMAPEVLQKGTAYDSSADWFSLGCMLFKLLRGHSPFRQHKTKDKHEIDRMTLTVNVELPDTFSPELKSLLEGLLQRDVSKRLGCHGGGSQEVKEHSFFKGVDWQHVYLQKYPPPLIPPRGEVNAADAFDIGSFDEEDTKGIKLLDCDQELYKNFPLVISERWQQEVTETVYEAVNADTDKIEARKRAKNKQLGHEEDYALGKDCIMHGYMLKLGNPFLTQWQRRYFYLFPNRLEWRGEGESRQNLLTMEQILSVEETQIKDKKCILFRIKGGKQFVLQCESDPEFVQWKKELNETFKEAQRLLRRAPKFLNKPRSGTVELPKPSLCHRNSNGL
From the text: as §1

[17] = molecular target: PAK1 (Homo sapiens (Human), UniProt Q13153); conditions: read-out: percent control
From the text: as §1

[18] = molecular target: ICK (Homo sapiens (Human), UniProt Q9UPZ9); conditions: read-out: percent control
Sequence of ICK (Q9UPZ9 whole entry): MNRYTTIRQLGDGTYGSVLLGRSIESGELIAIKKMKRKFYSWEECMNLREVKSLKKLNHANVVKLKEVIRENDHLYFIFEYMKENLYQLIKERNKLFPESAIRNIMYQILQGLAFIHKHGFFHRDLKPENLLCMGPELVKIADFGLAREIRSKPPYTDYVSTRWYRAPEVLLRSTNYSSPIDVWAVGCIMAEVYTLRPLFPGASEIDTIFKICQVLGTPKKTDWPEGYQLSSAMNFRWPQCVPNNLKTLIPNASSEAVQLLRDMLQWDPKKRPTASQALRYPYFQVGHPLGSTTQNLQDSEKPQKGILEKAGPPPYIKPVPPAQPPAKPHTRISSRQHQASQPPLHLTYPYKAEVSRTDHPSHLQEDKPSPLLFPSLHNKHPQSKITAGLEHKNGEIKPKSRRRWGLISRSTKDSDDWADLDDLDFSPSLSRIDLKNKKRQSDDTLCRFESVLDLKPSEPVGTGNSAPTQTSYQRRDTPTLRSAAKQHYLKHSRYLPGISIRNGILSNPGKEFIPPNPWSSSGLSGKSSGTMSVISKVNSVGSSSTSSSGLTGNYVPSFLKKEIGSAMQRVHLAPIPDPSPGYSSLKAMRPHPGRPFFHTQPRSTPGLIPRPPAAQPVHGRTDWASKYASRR
From the text: as §1

[19] = molecular target: YANK2 (Homo sapiens (Human), UniProt Q9NY57); conditions: read-out: percent control
From the text: as §1

[20] = molecular target: FLT3(D835H) (Homo sapiens (Human), UniProt P36888, D835H); conditions: read-out: percent control
From the text: as §1

[21] = molecular target: PIK4CB (Homo sapiens (Human), UniProt Q9UBF8); conditions: read-out: percent control
From the text: as §1

[22] = molecular target: PCTK1 (Homo sapiens (Human), UniProt Q00536); conditions: read-out: percent control
From the text: as §1

[23] = molecular target: CDK7 (Homo sapiens (Human), UniProt P50613); conditions: read-out: percent control
From the text: as §1

[24] = molecular target: RSK3(Kin.Dom.2- C-terminal) (Homo sapiens (Human), UniProt Q15349); conditions: read-out: percent control
Sequence of RSK3(Kin.Dom.2- C-terminal) (Q15349 415-672 limits assumed): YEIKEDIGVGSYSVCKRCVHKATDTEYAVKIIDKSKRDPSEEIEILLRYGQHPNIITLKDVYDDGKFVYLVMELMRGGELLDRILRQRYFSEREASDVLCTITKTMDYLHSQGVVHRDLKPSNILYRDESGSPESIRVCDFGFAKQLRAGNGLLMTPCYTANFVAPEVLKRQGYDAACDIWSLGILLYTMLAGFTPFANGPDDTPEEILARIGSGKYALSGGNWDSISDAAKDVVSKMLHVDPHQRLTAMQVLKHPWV
From the text: as §1

[25] = molecular target: TIE1 (Homo sapiens (Human), UniProt P35590); conditions: read-out: percent control
From the text: as §1

[26] = molecular target: VRK2 (Homo sapiens (Human), UniProt Q86Y07); conditions: read-out: percent control
From the text: as §1

[27] = molecular target: CSK (Homo sapiens (Human), UniProt P41240); conditions: read-out: percent control
From the text: as §1

[28] = molecular target: CDKL2 (Homo sapiens (Human), UniProt Q92772); conditions: read-out: percent control
From the text: as §1

[29] = molecular target: KIT(D816H) (Homo sapiens (Human), UniProt P10721, D816H); conditions: read-out: percent control
From the text: as §1

[30] = molecular target: BRAF (Homo sapiens (Human), UniProt P15056); conditions: read-out: percent control
From the text: as §1

[31] = molecular target: MARK2 (Homo sapiens (Human), UniProt Q7KZI7); conditions: read-out: percent control
From the text: as §1

[32] = molecular target: RSK4(Kin.Dom.1-N-terminal) (Homo sapiens (Human), UniProt Q9UK32); conditions: read-out: percent control
From the text: as §1

[33] = tested on: FLT3(ITD); conditions: 1 μM
From the text: as §1

[34] = molecular target: RET (Homo sapiens (Human), UniProt P07949); conditions: read-out: percent control
Sequence of RET (P07949 29-1114): as the sequence (P07949 29-1114 V804L) above, with L776V counted along it
From the text: as §1

[35] = molecular target: MARK1 (Homo sapiens (Human), UniProt Q9P0L2); conditions: read-out: percent control
Sequence of MARK1 (Q9P0L2 whole entry): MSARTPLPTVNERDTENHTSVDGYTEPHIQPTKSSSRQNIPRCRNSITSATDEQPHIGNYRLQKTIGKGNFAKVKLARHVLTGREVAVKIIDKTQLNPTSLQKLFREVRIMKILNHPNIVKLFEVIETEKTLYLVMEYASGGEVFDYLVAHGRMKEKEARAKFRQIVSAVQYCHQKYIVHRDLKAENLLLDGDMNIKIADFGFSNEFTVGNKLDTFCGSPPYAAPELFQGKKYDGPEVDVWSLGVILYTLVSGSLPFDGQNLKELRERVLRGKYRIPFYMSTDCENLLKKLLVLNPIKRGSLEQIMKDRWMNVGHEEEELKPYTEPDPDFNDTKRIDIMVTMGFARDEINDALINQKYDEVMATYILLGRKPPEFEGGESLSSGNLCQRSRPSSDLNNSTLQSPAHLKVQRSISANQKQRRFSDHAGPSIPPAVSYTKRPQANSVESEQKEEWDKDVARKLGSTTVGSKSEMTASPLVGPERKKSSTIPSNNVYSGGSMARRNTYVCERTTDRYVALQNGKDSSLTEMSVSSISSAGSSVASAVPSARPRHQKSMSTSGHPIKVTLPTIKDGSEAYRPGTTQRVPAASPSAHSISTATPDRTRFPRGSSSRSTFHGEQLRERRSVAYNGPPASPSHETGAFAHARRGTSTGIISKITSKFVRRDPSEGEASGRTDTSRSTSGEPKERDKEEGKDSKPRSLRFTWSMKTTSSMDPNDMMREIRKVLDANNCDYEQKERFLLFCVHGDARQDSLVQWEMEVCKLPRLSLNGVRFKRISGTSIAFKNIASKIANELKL
From the text: as §1

[36] = molecular target: CDC2L5 (Homo sapiens (Human), UniProt Q14004); conditions: read-out: percent control
Sequence of CDC2L5 (Q14004 whole entry, looked up): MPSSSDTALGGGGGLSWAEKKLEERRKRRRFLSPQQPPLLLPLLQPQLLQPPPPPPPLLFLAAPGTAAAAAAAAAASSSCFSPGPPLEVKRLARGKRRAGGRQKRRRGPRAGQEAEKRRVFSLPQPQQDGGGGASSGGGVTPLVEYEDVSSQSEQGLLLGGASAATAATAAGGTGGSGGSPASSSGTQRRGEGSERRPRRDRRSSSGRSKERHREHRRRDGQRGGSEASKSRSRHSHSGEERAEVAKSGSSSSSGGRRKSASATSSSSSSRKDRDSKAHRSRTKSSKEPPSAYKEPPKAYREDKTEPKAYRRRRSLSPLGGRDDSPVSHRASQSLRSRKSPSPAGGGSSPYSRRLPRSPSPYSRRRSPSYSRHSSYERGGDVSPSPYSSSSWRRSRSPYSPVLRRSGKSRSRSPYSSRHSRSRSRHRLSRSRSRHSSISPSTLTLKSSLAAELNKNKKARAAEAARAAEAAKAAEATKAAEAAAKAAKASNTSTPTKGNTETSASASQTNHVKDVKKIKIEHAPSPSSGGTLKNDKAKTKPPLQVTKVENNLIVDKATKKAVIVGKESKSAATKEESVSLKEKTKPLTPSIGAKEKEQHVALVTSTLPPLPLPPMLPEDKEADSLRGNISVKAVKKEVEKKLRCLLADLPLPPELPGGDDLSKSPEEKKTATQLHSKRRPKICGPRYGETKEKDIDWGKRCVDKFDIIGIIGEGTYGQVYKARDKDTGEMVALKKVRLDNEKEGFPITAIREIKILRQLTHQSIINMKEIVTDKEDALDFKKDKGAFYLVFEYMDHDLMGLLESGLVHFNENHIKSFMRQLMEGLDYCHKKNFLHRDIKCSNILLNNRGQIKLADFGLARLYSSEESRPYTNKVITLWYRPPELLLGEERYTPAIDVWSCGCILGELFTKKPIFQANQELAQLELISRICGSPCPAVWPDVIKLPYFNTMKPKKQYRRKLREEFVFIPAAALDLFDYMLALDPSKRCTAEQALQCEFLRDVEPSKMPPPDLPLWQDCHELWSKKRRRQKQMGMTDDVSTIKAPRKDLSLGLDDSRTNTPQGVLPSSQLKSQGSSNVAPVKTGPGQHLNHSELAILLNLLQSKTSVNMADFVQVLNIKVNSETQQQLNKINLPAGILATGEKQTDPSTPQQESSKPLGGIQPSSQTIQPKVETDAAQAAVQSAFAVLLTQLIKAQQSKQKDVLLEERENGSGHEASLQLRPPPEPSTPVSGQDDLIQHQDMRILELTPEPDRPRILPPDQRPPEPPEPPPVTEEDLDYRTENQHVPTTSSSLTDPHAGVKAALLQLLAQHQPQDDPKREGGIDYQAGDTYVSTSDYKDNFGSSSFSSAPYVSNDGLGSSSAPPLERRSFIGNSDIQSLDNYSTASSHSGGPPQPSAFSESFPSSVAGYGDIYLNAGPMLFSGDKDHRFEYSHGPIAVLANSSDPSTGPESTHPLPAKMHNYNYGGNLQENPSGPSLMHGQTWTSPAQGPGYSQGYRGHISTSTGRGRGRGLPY
From the text: as §1

[37] = molecular target: LYN (Homo sapiens (Human), UniProt P07948); conditions: read-out: percent control
From the text: as §1

[38] = molecular target: PIM2 (Homo sapiens (Human), UniProt Q9P1W9); conditions: read-out: percent control
From the text: as §1

[39] = molecular target: INSRR (Homo sapiens (Human), UniProt P14616); conditions: read-out: percent control
From the text: as §1

[40] = molecular target: EPHB6 (Homo sapiens (Human), UniProt O15197); conditions: read-out: percent control
From the text: as §1

Row | Structure (SMILES) | remaining binding at 1 µM [1] | remaining binding at 1 µM [2] | remaining binding at 1 µM [3] | remaining binding at 1 µM [4] | remaining binding at 1 µM [5] | remaining binding at 1 µM [6] | remaining binding at 1 µM [7] | remaining binding at 1 µM [8] | remaining binding at 1 µM [9] | remaining binding at 1 µM [10] | remaining binding at 1 µM [11] | remaining binding at 1 µM [12] | remaining binding at 1 µM [13] | remaining binding at 1 µM [14] | remaining binding at 1 µM [15] | remaining binding at 1 µM [16] | remaining binding at 1 µM [17] | remaining binding at 1 µM [18] | remaining binding at 1 µM [19] | remaining binding at 1 µM [20] | other results
1 | CCN1CCN(Cc2ccc(Nc3nc4ccc(Oc5ccnc(NC(C)=O)c5)cc4n3C)cc2C(F)(F)F)CC1 [Compound I-2] | 100% | 66% | 75% | 96% | 89% | 100% | 15% | 81% | 57% | 43% | 100% | 73% | 9% | 6.3% | 16% | 100% | 88% | 100% | 100% | 47% | remaining binding at 1 µM [21]: 99%; remaining binding at 1 µM [22]: 84%; remaining binding at 1 µM [23]: 45%; remaining binding at 1 µM [24]: 82%; remaining binding at 1 µM [25]: 11%; remaining binding at 1 µM [26]: 54%; remaining binding at 1 µM [27]: 63%; remaining binding at 1 µM [28]: 1.9%; remaining binding at 1 µM [29]: 22%; remaining binding at 1 µM [30]: 3.9%; remaining binding at 1 µM [31]: 100%; remaining binding at 1 µM [32]: 100%; percent control [33]: 24%; remaining binding at 1 µM [34]: 0%; remaining binding at 1 µM [35]: 98%; remaining binding at 1 µM [36]: 59%; remaining binding at 1 µM [37]: 44%; remaining binding at 1 µM [38]: 91%; remaining binding at 1 µM [39]: 5.3%; remaining binding at 1 µM [40]: 72%
2 | CCN1CCN(Cc2ccc(Nc3nc4ccc(Oc5ccnc(NC(C)=O)c5)c(C)c4n3C)cc2C(F)(F)F)CC1 [Compound I-6, N-(4-(2-(4-((4-ethylpiperazin-1-yl)methyl)-3-(trifluoromethyl)phenylamino)-1,7-dimethyl-1H-benzo[d]imidazol-6-yloxy)pyridin-2-yl)acetamide] | 100% | 100% | 100% | 92% | 83% | 99% | 7.8% | 100% | 98% | 2.5% | 100% | 100% | 3.2% | 4.2% | 0.95% | 79% | 77% | 82% | 91% | 24% | remaining binding at 1 µM [21]: 73%; remaining binding at 1 µM [22]: 68%; remaining binding at 1 µM [23]: 15%; remaining binding at 1 µM [24]: 95%; remaining binding at 1 µM [25]: 4%; remaining binding at 1 µM [26]: 100%; remaining binding at 1 µM [27]: 87%; remaining binding at 1 µM [28]: 0.5%; remaining binding at 1 µM [29]: 44%; remaining binding at 1 µM [30]: 9.2%; remaining binding at 1 µM [31]: 100%; remaining binding at 1 µM [32]: 93%; percent control [33]: 11%; remaining binding at 1 µM [34]: 0.1%; remaining binding at 1 µM [35]: 92%; remaining binding at 1 µM [36]: 3.8%; remaining binding at 1 µM [37]: 12%; remaining binding at 1 µM [38]: 92%; remaining binding at 1 µM [39]: 5.8%; remaining binding at 1 µM [40]: 95%

Reference: patent US12522583B2, “Benzimidazole derivatives and aza-benzimidazole derivatives as Janus kinase 2 inhibitors and uses thereof” (Dana-Farber Cancer Institute, Inc., priority 2018, dated 2026)
